# According to ChEMBL document CHEMBL5352387, “Synthesis and biological evaluation of tyrosine derivatives as peripheral 5HT2A receptor antagonists for nonalcoholic fatty liver disease” (Eur J Med Chem, 2022):
# Calls of active or inactive are those of the source. The calls are words filed in the database; no cut-off is given here.
# Key:
# [1] = Drug concentration in brain of ICR mouse at 5 mg/kg, iv measured at 1 hr; assay type: ADME, organism-based; details: read-out: Ct
# [2] = target: T1, 5-hydroxytryptamine receptor 2A (Homo sapiens, UniProt P28223); test: Inhibition of 5HT2A receptor (unknown origin) expressed in HEK293 cells at 1 uM by FLIPR Calcium 6 dye based assay relative to control; assay type: functional, cell-based
# [3] = Drug concentration in plasma of ICR mouse at 5 mg/kg, iv measured at 1 hr; assay type: ADME, organism-based
# [4] = target: T1, 5-hydroxytryptamine receptor 2A; test: Inhibition of 5HT2A receptor (unknown origin) expressed in HEK293 cells by FLIPR Calcium 6 dye based assay; assay type: functional, cell-based
# Mus musculus [5] = test: Reduction in hepatic steatosis in high fat diet-induced NAFLD C57BL6/J mouse model assessed as decrease in size of lipid droplet in brown adipose tissue at 1 mg/kg, ip measured after 8 weeks by H and E staining based analysis; assay type: functional, organism-based
# [6] = target: T2, 5-hydroxytryptamine receptor 2C (Homo sapiens) (UniProt P28335); test: Inhibition of 5HT2C receptor (unknown origin) at 1 uM relative to control
# T2 sequence (whole entry): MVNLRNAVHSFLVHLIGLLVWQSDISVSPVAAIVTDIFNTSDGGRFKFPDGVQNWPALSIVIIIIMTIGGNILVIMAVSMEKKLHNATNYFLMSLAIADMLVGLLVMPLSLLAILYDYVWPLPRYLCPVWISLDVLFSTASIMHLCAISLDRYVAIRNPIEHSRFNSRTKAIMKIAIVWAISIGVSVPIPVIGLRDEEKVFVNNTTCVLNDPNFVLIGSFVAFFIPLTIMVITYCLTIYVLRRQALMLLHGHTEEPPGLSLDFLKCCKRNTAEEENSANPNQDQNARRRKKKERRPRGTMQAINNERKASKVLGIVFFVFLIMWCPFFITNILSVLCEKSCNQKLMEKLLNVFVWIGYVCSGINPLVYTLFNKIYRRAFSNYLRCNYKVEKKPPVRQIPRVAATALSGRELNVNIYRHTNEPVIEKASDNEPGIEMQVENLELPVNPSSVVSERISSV
# [7] = target: 5-hydroxytryptamine receptor 4 (Homo sapiens) (UniProt Q13639); test: Inhibition of 5HT4E receptor (unknown origin) at 1 uM relative to control
# Mus musculus [8] = test: Reduction in hepatic steatosis in high fat diet-induced NAFLD C57BL6/J mouse model assessed as reduction in hepatic triglyceride level at 1 mg/kg, ip measured after 8 weeks by colorimetric assay; assay type: functional, organism-based
# [9] = target: 5-hydroxytryptamine receptor 5A (Homo sapiens) (UniProt P47898); test: Inhibition of 5HT5A receptor (unknown origin) at 1 uM relative to control
# Cytochrome P450 2D6 = Cytochrome P450 2D6 (Homo sapiens, UniProt P10635); test: Inhibition of CYP2D6 (unknown origin) relative to control; assay type: ADME
# Cytochrome P450 2C19 = Cytochrome P450 2C19 (Homo sapiens, UniProt P33261); test: Inhibition of CYP2C19 (unknown origin) relative to control; assay type: ADME
# Mus musculus [10] = test: Reduction in hepatic steatosis in high fat diet-induced NAFLD C57BL6/J mouse model assessed as increase in multilocular adipocytes at 1 mg/kg, ip measured after 8 weeks by H and E staining based analysis; assay type: functional, organism-based
# [11] = Stability in human liver microsomes assessed as parent compound remaining measured after 30 mins; assay type: ADME, Microsome; details: read-out: Stability
# [12] = Stability in rat liver microsomes assessed as parent compound remaining measured after 30 mins; assay type: ADME, Microsome; details: read-out: Stability
# [13] = target: T3, 5-hydroxytryptamine receptor 1A (Homo sapiens) (UniProt P08908); test: Inhibition of 5HT1A receptor (unknown origin) at 1 uM relative to control
# T3 sequence (whole entry): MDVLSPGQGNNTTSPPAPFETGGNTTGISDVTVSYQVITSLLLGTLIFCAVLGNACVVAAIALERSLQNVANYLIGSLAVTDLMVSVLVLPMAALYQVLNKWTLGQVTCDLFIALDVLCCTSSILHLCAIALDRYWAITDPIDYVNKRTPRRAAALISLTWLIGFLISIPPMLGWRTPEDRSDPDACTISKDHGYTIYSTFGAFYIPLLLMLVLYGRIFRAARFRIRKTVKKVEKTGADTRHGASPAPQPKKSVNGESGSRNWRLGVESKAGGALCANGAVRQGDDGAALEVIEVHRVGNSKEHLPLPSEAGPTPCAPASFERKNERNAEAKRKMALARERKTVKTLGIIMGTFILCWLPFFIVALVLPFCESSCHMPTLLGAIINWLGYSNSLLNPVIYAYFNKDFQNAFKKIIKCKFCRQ
# Mus musculus [14] = test: Reduction in hepatic steatosis in high fat diet-induced NAFLD C57BL6/J mouse model assessed as reduction in serum ALT level at 1 mg/kg, ip measured after 8 weeks; assay type: functional, organism-based
# Mus musculus [15] = test: Reduction in hepatic steatosis in high fat diet-induced NAFLD C57BL6/J mouse model at 1 mg/kg, ip measured after 8 weeks; assay type: functional, organism-based
# Cytochrome P450 3A4 = Cytochrome P450 3A4 (Homo sapiens, UniProt P08684); test: Inhibition of CYP3A4 (unknown origin) relative to control; assay type: ADME
# Mus musculus [16] = test: Reduction in hepatic steatosis in high fat diet-induced NAFLD C57BL6/J mouse model assessed as reduction in adipose tissue inflammation at 1 mg/kg, ip measured after 8 weeks by H and E staining based analysis; assay type: functional, organism-based
# Mus musculus [17] = test: Reduction in hepatic steatosis in high fat diet-induced NAFLD C57BL6/J mouse model assessed as body weight gain at 1 mg/kg, ip measured after 8 weeks; assay type: functional, organism-based
# [18] = target: Serotonin 3 (5-HT3) receptor (Homo sapiens) (UniProt P46098+A5X5Y0+O95264+Q70Z44+Q8WXA8); test: Inhibition of 5HT3 receptor (unknown origin) at 1 uM relative to control; assay type: protein-complex assay
# Mus musculus [19] = test: Reduction in hepatic steatosis in high fat diet-induced NAFLD C57BL6/J mouse model assessed as reduction in serum AST level at 1 mg/kg, ip measured after 8 weeks; assay type: functional, organism-based
# [20] = target: 5-hydroxytryptamine receptor 7 (Homo sapiens) (UniProt P34969); test: Inhibition of 5HT7 receptor (unknown origin) at 1 uM relative to control
# hERG = hERG (Homo sapiens, UniProt Q12809); test: Inhibition of hERG at 10 uM relative to control; assay type: toxicity
# Mus musculus [21] = test: Reduction in hepatic steatosis in high fat diet-induced NAFLD C57BL6/J mouse model assessed as reduction in serum cholesterol level at 1 mg/kg, ip measured after 8 weeks; assay type: functional, organism-based
# [22] = Stability in mouse liver microsomes assessed as parent compound remaining measured after 30 mins; assay type: ADME, Microsome; details: read-out: Stability
# Cytochrome P450 1A2 = target: T4, Cytochrome P450 1A2 (Homo sapiens, UniProt P05177); test: Inhibition of CYP1A2 (unknown origin) relative to control; assay type: ADME
# T4 sequence (P05177 whole entry): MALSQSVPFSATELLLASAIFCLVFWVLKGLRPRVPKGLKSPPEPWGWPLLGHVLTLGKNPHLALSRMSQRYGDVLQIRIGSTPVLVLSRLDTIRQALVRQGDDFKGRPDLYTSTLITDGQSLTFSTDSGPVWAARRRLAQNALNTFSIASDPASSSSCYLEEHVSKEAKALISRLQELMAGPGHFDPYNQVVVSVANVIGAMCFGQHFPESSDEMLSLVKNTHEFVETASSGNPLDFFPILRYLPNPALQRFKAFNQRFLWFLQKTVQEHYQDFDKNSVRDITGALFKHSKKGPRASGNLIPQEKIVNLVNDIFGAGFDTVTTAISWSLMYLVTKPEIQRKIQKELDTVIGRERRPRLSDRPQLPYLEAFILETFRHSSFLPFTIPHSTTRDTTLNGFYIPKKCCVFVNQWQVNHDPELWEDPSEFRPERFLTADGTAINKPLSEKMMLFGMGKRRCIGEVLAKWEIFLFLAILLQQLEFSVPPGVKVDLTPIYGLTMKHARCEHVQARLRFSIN
# Mus musculus [23] = test: Reduction in hepatic steatosis in high fat diet-induced NAFLD C57BL6/J mouse model assessed as improved glucose tolerance at 1 mg/kg, ip measured after 8 weeks by glucometer analysis; assay type: functional, organism-based
# Mus musculus [24] = test: Reduction in hepatic steatosis in high fat diet-induced NAFLD C57BL6/J mouse model assessed as decrease in size of adipocytes in inguinal white adipose tissue at 1 mg/kg, ip measured after 8 weeks by H and E staining based analysis; assay type: functional, organism-based
# Mus musculus [25] = test: Reduction in hepatic steatosis in high fat diet-induced NAFLD C57BL6/J mouse model assessed as reduction in lobular inflammation at 1 mg/kg, ip measured after 8 weeks by H and E staining analysis; assay type: functional, organism-based
# Mus musculus [26] = test: Reduction in hepatic steatosis in high fat diet-induced NAFLD C57BL6/J mouse model assessed as increase in lean body mass at 1 mg/kg, ip measured after 8 weeks; assay type: functional, organism-based
# Mus musculus [27] = test: Reduction in hepatic steatosis in high fat diet-induced NAFLD C57BL6/J mouse model assessed as decrease in size of adipocytes in epididymis white adipose tissue at 1 mg/kg, ip measured after 8 weeks by H and E staining based analysis; assay type: functional, organism-based
# Mus musculus [28] = test: Reduction in hepatic steatosis in high fat diet-induced NAFLD C57BL6/J mouse model assessed as reduction in fat body mass at 1 mg/kg, ip measured after 8 weeks; assay type: functional, organism-based
# [29] = target: 5-hydroxytryptamine receptor 6 (Homo sapiens) (UniProt P50406); test: Inhibition of 5HT6 receptor (unknown origin) at 1 uM relative to control
# Cytochrome P450 2C9 = Cytochrome P450 2C9 (Homo sapiens, UniProt P11712); test: Inhibition of CYP2C9 (unknown origin) relative to control; assay type: ADME
# Sequence of Cytochrome P450 2C9 (P11712 whole entry): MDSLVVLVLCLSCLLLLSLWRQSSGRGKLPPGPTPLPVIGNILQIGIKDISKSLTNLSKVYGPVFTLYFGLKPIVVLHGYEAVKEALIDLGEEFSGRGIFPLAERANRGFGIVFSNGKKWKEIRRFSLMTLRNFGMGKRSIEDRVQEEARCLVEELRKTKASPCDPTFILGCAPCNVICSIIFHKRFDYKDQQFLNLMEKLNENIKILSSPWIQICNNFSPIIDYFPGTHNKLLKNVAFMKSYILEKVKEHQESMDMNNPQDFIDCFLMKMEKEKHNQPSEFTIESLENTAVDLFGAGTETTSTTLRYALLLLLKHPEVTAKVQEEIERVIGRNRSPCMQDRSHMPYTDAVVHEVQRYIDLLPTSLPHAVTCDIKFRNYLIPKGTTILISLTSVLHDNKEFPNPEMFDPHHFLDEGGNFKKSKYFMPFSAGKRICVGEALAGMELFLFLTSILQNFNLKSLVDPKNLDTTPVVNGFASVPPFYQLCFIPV
# T1 sequence (P28223 whole entry): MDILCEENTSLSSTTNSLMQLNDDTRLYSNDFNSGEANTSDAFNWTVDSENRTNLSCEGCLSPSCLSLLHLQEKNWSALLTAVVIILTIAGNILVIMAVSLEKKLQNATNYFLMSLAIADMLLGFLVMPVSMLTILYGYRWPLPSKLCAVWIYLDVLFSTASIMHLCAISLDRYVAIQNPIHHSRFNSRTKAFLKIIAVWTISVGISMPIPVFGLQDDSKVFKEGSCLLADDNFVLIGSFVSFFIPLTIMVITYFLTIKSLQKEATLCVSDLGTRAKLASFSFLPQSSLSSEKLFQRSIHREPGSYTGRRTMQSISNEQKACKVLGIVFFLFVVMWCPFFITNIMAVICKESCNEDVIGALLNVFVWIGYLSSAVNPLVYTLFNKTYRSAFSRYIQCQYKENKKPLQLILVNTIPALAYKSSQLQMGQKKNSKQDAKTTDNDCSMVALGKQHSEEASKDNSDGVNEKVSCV
# Sequence of Cytochrome P450 2C19 (P33261 whole entry): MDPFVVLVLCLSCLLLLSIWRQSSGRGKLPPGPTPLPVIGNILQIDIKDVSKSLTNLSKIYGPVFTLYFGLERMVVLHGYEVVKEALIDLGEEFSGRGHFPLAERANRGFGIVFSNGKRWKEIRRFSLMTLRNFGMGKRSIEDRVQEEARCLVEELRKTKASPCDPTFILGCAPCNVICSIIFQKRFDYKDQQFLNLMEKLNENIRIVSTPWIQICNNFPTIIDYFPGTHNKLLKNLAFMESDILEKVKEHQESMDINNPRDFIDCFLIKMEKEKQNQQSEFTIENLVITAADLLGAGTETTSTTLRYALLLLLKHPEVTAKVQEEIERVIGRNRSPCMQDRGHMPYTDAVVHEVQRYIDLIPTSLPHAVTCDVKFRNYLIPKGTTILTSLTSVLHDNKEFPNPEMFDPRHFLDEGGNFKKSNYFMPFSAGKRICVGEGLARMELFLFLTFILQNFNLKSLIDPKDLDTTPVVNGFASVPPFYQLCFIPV
# Sequence of 5-hydroxytryptamine receptor 5A (Homo sapiens) (P47898 whole entry): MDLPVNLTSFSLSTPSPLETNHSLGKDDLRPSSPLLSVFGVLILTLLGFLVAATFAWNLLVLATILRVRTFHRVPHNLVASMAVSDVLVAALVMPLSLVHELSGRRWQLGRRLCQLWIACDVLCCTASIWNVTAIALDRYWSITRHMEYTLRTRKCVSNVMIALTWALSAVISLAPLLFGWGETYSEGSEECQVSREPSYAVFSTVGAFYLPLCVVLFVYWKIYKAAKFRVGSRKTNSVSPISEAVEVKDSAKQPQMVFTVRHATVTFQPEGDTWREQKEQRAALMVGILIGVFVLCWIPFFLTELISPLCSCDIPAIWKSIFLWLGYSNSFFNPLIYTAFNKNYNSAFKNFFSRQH
# Sequence of 5-hydroxytryptamine receptor 4 (Homo sapiens) (Q13639 whole entry): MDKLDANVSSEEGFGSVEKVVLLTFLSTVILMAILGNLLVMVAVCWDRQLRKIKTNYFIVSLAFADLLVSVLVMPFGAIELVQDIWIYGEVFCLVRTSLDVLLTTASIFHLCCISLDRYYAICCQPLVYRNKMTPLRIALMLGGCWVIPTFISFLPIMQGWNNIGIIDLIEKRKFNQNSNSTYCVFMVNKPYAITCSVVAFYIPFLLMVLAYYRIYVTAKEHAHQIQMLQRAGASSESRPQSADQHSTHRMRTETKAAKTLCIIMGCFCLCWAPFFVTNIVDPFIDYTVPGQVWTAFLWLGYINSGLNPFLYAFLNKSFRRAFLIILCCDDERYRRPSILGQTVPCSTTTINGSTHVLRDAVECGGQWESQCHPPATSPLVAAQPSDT
# Sequence of Cytochrome P450 2D6 (P10635 whole entry): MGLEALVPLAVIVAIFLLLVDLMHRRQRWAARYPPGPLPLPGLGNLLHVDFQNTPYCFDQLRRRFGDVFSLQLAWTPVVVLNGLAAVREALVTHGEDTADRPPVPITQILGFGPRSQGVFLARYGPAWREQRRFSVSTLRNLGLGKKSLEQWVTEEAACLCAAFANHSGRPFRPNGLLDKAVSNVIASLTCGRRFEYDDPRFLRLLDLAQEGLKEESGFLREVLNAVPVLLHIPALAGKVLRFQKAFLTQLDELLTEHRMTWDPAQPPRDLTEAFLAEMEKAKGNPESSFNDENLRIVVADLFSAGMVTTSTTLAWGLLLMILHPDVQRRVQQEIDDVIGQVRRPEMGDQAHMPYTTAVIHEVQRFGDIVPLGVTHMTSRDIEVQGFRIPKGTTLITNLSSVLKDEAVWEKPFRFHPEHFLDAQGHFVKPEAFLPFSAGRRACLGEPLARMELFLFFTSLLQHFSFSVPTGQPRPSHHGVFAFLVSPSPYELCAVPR
# Sequence of 5-hydroxytryptamine receptor 6 (Homo sapiens) (P50406 whole entry): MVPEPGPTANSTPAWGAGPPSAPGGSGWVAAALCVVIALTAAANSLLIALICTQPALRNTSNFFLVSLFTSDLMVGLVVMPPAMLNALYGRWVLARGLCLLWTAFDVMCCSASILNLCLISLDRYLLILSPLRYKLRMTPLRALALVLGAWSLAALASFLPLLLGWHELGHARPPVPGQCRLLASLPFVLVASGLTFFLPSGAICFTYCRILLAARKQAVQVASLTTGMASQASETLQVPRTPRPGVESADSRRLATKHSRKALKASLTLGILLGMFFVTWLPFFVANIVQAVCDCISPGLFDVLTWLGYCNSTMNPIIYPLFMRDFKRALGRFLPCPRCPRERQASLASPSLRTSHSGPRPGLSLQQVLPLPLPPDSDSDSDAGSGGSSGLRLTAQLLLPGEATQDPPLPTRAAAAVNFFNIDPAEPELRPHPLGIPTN
# Sequence of Cytochrome P450 3A4 (P08684 whole entry): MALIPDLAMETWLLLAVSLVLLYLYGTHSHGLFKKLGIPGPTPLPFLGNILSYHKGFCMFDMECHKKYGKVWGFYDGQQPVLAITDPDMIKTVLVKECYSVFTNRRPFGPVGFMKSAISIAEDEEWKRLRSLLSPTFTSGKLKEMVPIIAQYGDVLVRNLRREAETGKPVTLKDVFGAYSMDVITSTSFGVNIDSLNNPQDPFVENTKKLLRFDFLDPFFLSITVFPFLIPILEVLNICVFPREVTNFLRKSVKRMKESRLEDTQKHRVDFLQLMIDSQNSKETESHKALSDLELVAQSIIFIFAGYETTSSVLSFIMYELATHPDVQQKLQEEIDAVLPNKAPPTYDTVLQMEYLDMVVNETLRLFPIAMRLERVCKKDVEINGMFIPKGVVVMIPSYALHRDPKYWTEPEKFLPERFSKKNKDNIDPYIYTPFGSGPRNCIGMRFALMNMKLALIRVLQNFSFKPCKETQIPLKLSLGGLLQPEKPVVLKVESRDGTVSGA
# Sequence of 5-hydroxytryptamine receptor 7 (Homo sapiens) (P34969 whole entry): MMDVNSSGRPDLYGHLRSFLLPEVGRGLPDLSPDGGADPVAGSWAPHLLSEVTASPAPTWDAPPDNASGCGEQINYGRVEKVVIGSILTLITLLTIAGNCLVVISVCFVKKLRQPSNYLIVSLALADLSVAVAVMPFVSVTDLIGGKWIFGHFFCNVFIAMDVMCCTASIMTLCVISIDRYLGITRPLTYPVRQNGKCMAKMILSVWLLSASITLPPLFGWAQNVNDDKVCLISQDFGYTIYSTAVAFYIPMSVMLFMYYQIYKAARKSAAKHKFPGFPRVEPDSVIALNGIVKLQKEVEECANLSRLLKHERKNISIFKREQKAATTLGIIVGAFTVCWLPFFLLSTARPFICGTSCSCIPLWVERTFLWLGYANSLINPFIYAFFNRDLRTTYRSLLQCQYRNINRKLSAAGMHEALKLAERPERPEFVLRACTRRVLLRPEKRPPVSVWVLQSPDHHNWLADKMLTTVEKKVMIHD
smiles,measurement,setting,value
O=C(O)CCc1ccc(OCCN2CCN(c3nsc4ccccc34)CC2)cc1,concentration at 1 h,[1],< 7.8 ng/mL
same,inhibition,[2],43.4%
same,concentration at 1 h,[3],114 ng/mL
N[C@H](Cc1ccc(OCCN2CCN(c3nsc4ccccc34)CC2)cc1)C(=O)O,inhibition,[2],53.4%
Cl.Cl.N[C@@H](Cc1ccc(OCCN2CCN(c3nsc4ccccc34)CC2)cc1)C(=O)O,concentration at 1 h,[1],< 7.8 ng/mL
same,inhibition,[2],73.9%
same,concentration at 1 h,[3],165 ng/mL
Cl.Cl.N[C@@H](Cc1ccc(OCC(O)CN2CCC(c3noc4cc(F)ccc34)CC2)cc1)C(=O)O (stereo partly drawn),IC50,[4],2.15 nM
same,concentration at 1 h,[1],< 7.8 ng/mL
same,inhibition,[2],90.8%
same,concentration at 1 h,[3],1230 ng/mL
N[C@@H](Cc1ccc(OCCN2CCN(c3cccc(Cl)c3Cl)CC2)cc1)C(=O)O,inhibition,[2],43.2%
Cl.Cl.N[C@@H](Cc1ccc(OCCCN2CCC(c3noc4cc(F)ccc34)CC2)cc1)C(=O)O,Activity,Mus musculus [5],Active
same,inhibition,[6],98%
same,inhibition,[7],50.4%
same,Activity,Mus musculus [8],Active
same,inhibition,[9],16%
same,inhibition (INH),Cytochrome P450 2D6,31.9%
same,IC50,[4],0.17 nM
same,inhibition (INH),Cytochrome P450 2C19,< 1%
same,Activity,Mus musculus [10],Active
same,remaining at 0.5 h,[11],> 99%
same,remaining at 0.5 h,[12],98.5%
same,inhibition,[13],68%
same,Activity,Mus musculus [14],Active
same,Activity,Mus musculus [15],Active
same,concentration at 1 h,[1],< 7.8 ng/mL
same,inhibition (INH),Cytochrome P450 3A4,< 1%
same,Activity,Mus musculus [16],Active
same,Activity,Mus musculus [17],Active
same,inhibition,[18],22%
same,Activity,Mus musculus [19],Active
same,inhibition,[20],24%
same,inhibition at 10 µM,hERG,30.9%
same,inhibition,[2],92%
same,Activity,Mus musculus [21],inactive
same,remaining at 0.5 h,[22],> 99%
same,inhibition (INH),Cytochrome P450 1A2,4.3%
same,Activity,Mus musculus [23],Active
same,concentration at 1 h,[3],901 ng/mL
same,Activity,Mus musculus [24],Active
same,Activity,Mus musculus [25],Active
same,Activity,Mus musculus [26],Active
same,Activity,Mus musculus [27],Active
same,Activity,Mus musculus [28],Active
same,inhibition,[29],4%
same,inhibition (INH),Cytochrome P450 2C9,1.8%
O=C(O)Cc1ccc(OCCN2CCN(c3nsc4ccccc34)CC2)cc1,inhibition,[2],9.53%
N[C@@H](Cc1ccc(OCCN2CCC(c3noc4cc(F)ccc34)CC2)cc1)C(=O)O,inhibition,[2],74.8%
N[C@@H](Cc1ccc(OCCCCN2CCC(c3noc4cc(F)ccc34)CC2)cc1)C(=O)O,IC50,[4],3.6 nM
same,inhibition,[2],91.4%
N[C@@H](Cc1ccc(OCCN2CCC(C(=O)c3ccc(F)cc3)CC2)cc1)C(=O)O,inhibition,[2],35.1%
O=C(O)c1ccc(OCCN2CCN(c3nsc4ccccc34)CC2)cc1,inhibition,[2],33.3%
